The nature of the assay: Anti-HIV Cytoprotection Assay: The in vitro antiviral activity profile for CMX157 was evaluated for cell-type effects and HIV strain effects.
Take `C[C@H](Cn1cnc2c(N)ncnc21)OCP(=O)(O)OCCCOCC(=O)O`: the EC50 is more than 10 µM.
In the case of `C[C@H](Cn1cnc2c(N)ncnc21)OCP(=O)(O)OCCCOCCCC(=O)O` it was more than 10 µM; in that of `C[C@H](Cn1cnc2c(N)ncnc21)OCP(=O)(O)OCCCO`, more than 10 µM; in that of `CCCCCCCCCCCCCCCCOCCCOP(=O)(O)CO[C@H](C)Cn1cnc2c(N)ncnc21` [TENOFOVIR EXALIDEX], less than 0.03 µM.
